Measurements taken from paper doi:10.1101/2024.04.22.590490v1 (biorxiv, 2024).

How the values were obtained:
GSK-3β = GSK-3β (Homo sapiens, UniProt P49841); experiment: ADP-Glo luminescent kinase assay; assay type: biochemical
GSK-3α = GSK-3α (Homo sapiens, UniProt P49840); experiment: ADP-Glo luminescent kinase assay; assay type: biochemical
Sequence of GSK-3α (P49840 2-483): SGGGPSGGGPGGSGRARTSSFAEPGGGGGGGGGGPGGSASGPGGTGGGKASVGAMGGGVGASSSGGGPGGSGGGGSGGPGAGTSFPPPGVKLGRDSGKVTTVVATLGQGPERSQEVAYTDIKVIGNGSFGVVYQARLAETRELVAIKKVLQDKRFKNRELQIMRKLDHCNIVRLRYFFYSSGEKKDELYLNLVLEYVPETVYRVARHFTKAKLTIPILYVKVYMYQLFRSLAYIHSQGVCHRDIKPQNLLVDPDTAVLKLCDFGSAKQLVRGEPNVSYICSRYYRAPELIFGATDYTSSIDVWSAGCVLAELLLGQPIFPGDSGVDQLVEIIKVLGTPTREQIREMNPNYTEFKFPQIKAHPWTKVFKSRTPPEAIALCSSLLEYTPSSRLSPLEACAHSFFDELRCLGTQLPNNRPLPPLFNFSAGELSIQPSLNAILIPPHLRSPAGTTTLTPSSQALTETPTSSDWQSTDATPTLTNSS

Sequence of GSK-3β (P49841 whole entry): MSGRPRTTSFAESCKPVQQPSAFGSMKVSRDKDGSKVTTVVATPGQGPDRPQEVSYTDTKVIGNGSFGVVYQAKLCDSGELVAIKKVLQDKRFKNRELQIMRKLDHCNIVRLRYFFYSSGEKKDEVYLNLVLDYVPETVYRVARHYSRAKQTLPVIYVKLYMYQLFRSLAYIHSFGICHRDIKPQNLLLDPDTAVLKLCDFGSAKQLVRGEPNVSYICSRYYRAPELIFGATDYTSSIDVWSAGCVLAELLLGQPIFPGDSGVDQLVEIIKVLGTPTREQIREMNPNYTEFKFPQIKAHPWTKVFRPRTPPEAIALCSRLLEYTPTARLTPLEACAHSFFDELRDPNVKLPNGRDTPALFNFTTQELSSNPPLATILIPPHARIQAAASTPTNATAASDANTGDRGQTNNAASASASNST

SMILES: CC(C)=CCc1cc2c(cc1O)oc(=O)c1c3ccc(O)cc3oc21 [Psoralidin]
- IC50 (GSK-3β): 4.24 µM
- IC50 (GSK-3α): 2.27 µM

SMILES: O=C(/C=C/c1ccc(O)c(O)c1)O[C@H](Cc1ccc(O)c(O)c1)C(=O)O [Rosmarinic acid]
- IC50 (GSK-3β): 2.25 µM
- IC50 (GSK-3α): 5.14 µM
